Experimental data from patent US10961200B2, “Small molecule inhibitors of lactate dehydrogenase and methods of use thereof” (THE UNITED STATES OF AMERICA, AS REPRESENTED BY THE …, priority 2014, dated 2021).

Experiments:
MiaPaCa2 cells = experiment: cell-based HT lactate assay, colorimetric/fluorometric detection (inhibition of lactate production); conditions: Homo sapiens, MIA PaCa-2; class symbols, 0 to 3 pluses
Human LDHA = Human LDHA (Homo sapiens (Human), UniProt P00338); experiment: human LDHA primary biochemical assay (resazurin/diaphorase coupled, fluorescence); conditions: LDHA inhibitory activity, activity level based on IC50 (Table 7)
Source text: Test compounds were placed in a Greiner Bio-One (Monroe, N.C.) 1536-well black solid bottom assay plate. 200 millimolar (mM) Tris HCl, pH 7.4, 100 micromolar […] EDTA and 0.01% TWEEN-20™, final concentration, was used as the assay buffer. The LDHA reagent was 2 nanomolar (nM) Human LDHA (Meridian Life Science, Inc., Memphis, Tenn.), final concentration, in assay buffer.

| SMILES | IC50 (MiaPaCa2 cells) [nM] | IC50 (Human LDHA) [nM] |
| --- | --- | --- |
| NS(=O)(=O)c1ccc(Cc2c(-c3ccc(F)c(OCC4CCCO4)c3)nn(-c3nc(C(=O)O)cs3)c2CC2CC2)cc1F (centres unmarked) [Compound 469, 2-(5-(cyclopropylmethyl)-3-(4-fluoro-3-((tetrahydrofuran-2-yl)methoxy)phenyl)-4-(3-fluoro-4-sulfamoylbenzyl)-1H-pyrazol-1-yl)thiazole-4-carboxylic acid] | 1000 to 10000 | < 100 |
| NS(=O)(=O)c1ccc(Cc2c(-c3ccc(F)c(OCC4CCOC4)c3)nn(-c3nc(C(=O)O)cs3)c2CC2CC2)cc1F (centres unmarked) [Compound 470, 2-(5-(cyclopropylmethyl)-3-(4-fluoro-3-((tetrahydrofuran-3-yl)methoxy)phenyl)-4-(3-fluoro-4-sulfamoylbenzyl)-1H-pyrazol-1-yl)thiazole-4-carboxylic acid] | 1000 to 10000 | < 100 |
| NS(=O)(=O)c1ccc(Cc2c(-c3ccc(F)c(OCc4ccc(C(F)(F)F)o4)c3)nn(-c3nc(C(=O)O)cs3)c2CC2CC2)cc1F [Compound 473, 2-(5-(cyclopropylmethyl)-3-(4-fluoro-3-((5-(trifluoromethyl)furan-2-yl)methoxy)phenyl)-4-(3-fluoro-4-sulfamoylbenzyl)-1H-pyrazol-1-yl)thiazole-4-carboxylic Acid] | < 1000 | < 100 |
| COc1cccc(-c2cc(F)cc(-c3nn(-c4nc(C(=O)O)cs4)c(CC4CC4)c3Cc3ccc(S(N)(=O)=O)cc3)c2)c1 [Compound 478, 2-(5-(cyclopropylmethyl)-3-(5-fluoro-3′-methoxy-[1,1′-biphenyl]-3-yl)-4-(4-sulfamoylbenzyl)-1H-pyrazol-1-yl)thiazole-4-carboxylic Acid] | 1000 to 10000 | < 100 |
| NS(=O)(=O)c1ccc(Cc2c(-c3cc(F)cc(-c4ccc(F)cc4)c3)nn(-c3nc(C(=O)O)cs3)c2CC2CC2)cc1 [Compound 479, 2-(5-(cyclopropylmethyl)-3-(4′,5-difluoro-[1,1′-biphenyl]-3-yl)-4-(4-sulfamoylbenzyl)-1H-pyrazol-1-yl)thiazole-4-carboxylic Acid] | < 1000 | < 100 |
| NS(=O)(=O)c1ccc(Cc2c(-c3ccc(F)c(OCc4ccccc4)c3)nn(-c3nc(C(=O)O)cs3)c2CC2CC2)cc1 [Compound 480, 2-(3-(3-(benzyloxy)-4-fluorophenyl)-5-(cyclopropylmethyl)-4-(4-sulfamoylbenzyl)-1H-pyrazol-1-yl)thiazole-4-carboxylic Acid] | < 1000 | < 100 |
| NS(=O)(=O)c1ccc(Cc2c(-c3cccc(Oc4ccc(C(F)(F)F)cc4)c3)nn(-c3nc(C(=O)O)cs3)c2CC2CC2)cc1 [Compound 481, 2-(5-(cyclopropylmethyl)-4-(4-sulfamoylbenzyl)-3-(3-(4-(trifluoromethyl)phenoxy)-phenyl)-1H-pyrazol-1-yl)thiazole-4-carboxylic Acid] | 1000 to 10000 | < 100 |
| NS(=O)(=O)c1ccc(Cc2c(-c3cccc(OCc4ccccc4)c3)nn(-c3nc(C(=O)O)cs3)c2C2CC2)cc1 [Compound 501, 2-(3-(3-(benzyloxy)phenyl)-5-cyclopropyl-4-(4-sulfamoylbenzyl)-1H-pyrazol-1-yl)thiazole-4-carboxylic acid] | 1000 to 10000 | < 100 |
| NS(=O)(=O)c1ccc(Cc2c(-c3cccc(Oc4ccccc4)c3)nn(-c3nc(C(=O)O)cs3)c2C2CC2)cc1 [Compound 502, 2-(5-cyclopropyl-3-(3-phenoxyphenyl)-4-(4-sulfamoylbenzyl)-1H-pyrazol-1-yl)thiazole-4-carboxylic acid] | 1000 to 10000 | < 100 |
| NS(=O)(=O)c1ccc(Cc2c(-c3cccc(Oc4ccccc4)c3)nn(-c3nc(C(=O)O)cs3)c2CC2CC2)cc1 [Compound 503, 2-(5-(cyclopropylmethyl)-3-(3-phenoxyphenyl)-4-(4-sulfamoylbenzyl)-1H-pyrazol-1-yl)thiazole-4-carboxylic Acid] | 1000 to 10000 | < 100 |
| Cc1cc(-c2cccc(F)c2)cc(-c2nn(-c3nc(C(=O)O)cs3)c(CC3CC3)c2Cc2ccc(S(N)(=O)=O)cc2)c1 [Compound 505, 2-(5-(cyclopropylmethyl)-3-(3′-fluoro-5-methyl-[1,1′-biphenyl]-3-yl)-4-(4-sulfamoylbenzyl)-1H-pyrazol-1-yl)thiazole-4-carboxylic Acid] | 1000 to 10000 | < 100 |
| Cc1cc(-c2ccc(F)cc2)cc(-c2nn(-c3nc(C(=O)O)cs3)c(CC3CC3)c2Cc2ccc(S(N)(=O)=O)cc2)c1 [Compound 506, 2-(5-(cyclopropylmethyl)-3-(4′-fluoro-5-methyl-[1,1′-biphenyl]-3-yl)-4-(4-sulfamoylbenzyl)-1H-pyrazol-1-yl)thiazole-4-carboxylic Acid] | 1000 to 10000 | < 100 |
| NS(=O)(=O)c1ccc(Cc2c(-c3cccc(Oc4ccc(F)cc4)c3)nn(-c3nc(C(=O)O)cs3)c2CC2CC2)cc1 [Compound 507, 2-(5-(cyclopropylmethyl)-3-(3-(4-fluorophenoxy)phenyl)-4-(4-sulfamoylbenzyl)-1H-pyrazol-1-yl)thiazole-4-carboxylic Acid] | 1000 to 10000 | < 100 |
| NS(=O)(=O)c1ccc(Cc2c(-c3ccc(F)c(Oc4ccccc4)c3)nn(-c3nc(C(=O)O)cs3)c2CC2CC2)cc1 [Compound 508, 2-(5-(cyclopropylmethyl)-3-(4-fluoro-3-phenoxyphenyl)-4-(4-sulfamoylbenzyl)-1H-pyrazol-1-yl)thiazole-4-carboxylic Acid] | 1000 to 10000 | < 100 |
| NS(=O)(=O)c1ccc(Cc2c(-c3ccc(F)c(Oc4cccc(F)c4)c3)nn(-c3nc(C(=O)O)cs3)c2CC2CC2)cc1F [Compound 509, 2-(5-(cyclopropylmethyl)-3-(4-fluoro-3-(3-fluorophenoxy)phenyl)-4-(3-fluoro-4-sulfamoylbenzyl)-1H-pyrazol-1-yl)thiazole-4-carboxylic Acid] | < 1000 | < 100 |
| Cc1ccc(Oc2cc(-c3nn(-c4nc(C(=O)O)cs4)c(CC4CC4)c3Cc3ccc(S(N)(=O)=O)c(F)c3)ccc2F)cc1 [Compound 510, 2-(5-(cyclopropylmethyl)-3-(4-fluoro-3-(p-tolyloxy)phenyl)-4-(3-fluoro-4-sulfamoylbenzyl)-1H-pyrazol-1-yl)thiazole-4-carboxylic Acid] | < 1000 | < 100 |
| NS(=O)(=O)c1ccc(Cc2c(-c3ccc(F)c(Oc4ccc(F)cc4)c3)nn(-c3nc(C(=O)O)cs3)c2CC2CC2)cc1F [Compound 511, 2-(5-(cyclopropylmethyl)-3-(4-fluoro-3-(4-fluorophenoxy)phenyl)-4-(3-fluoro-4-sulfamoylbenzyl)-1H-pyrazol-1-yl)thiazole-4-carboxylic Acid] | 1000 to 10000 | < 100 |
| NS(=O)(=O)c1ccc(Cc2c(-c3ccc(F)c(Oc4ccc(C(F)(F)F)cc4)c3)nn(-c3nc(C(=O)O)cs3)c2CC2CC2)cc1F [Compound 512, 2-(5-(cyclopropylmethyl)-3-(4-fluoro-3-(4-(trifluoromethyl)phenoxy)phenyl)-4-(3-fluoro-4-sulfamoylbenzyl)-1H-pyrazol-1-yl)thiazole-4-carboxylic Acid] | < 1000 | < 100 |
| NS(=O)(=O)c1ccc(Cc2c(-c3cc(F)cc(-c4cccc(F)c4)c3)nn(-c3nc(C(=O)O)cs3)c2CC2CC2)cc1 [Compound 523, 2-(5-(cyclopropylmethyl)-3-(3′,5-difluoro-[1,1′-biphenyl]-3-yl)-4-(4-sulfamoylbenzyl)-1H-pyrazol-1-yl)thiazole-4-carboxylic acid] | 1000 to 10000 | 100 to 1000 |
